Data on one compound can be found in patent US20250263404A1, “AMINOPYRIDINES AS ACTIVATORS OF PI3 KINASE” (UCL Business Ltd, priority 2021, published 2025).

In test [1] the target is T1, ATM (Homo sapiens, UniProt Q13315).
T1 construct: made in house
Nature of the test: ATM kinase assay (Phos-tag gel). To be noted: 200 μM 1938. Type of test: biochemical. As to the method: (§1) 133 protein kinases and 7 lipid kinases were counterscreened, with […] used at 1 μM, using the Adapta, Lantha and Z-LYTE assays (SelectScreen Kinase Profiling Service; Thermofisher—experimental details of these assays can be found here: https://www.thermofisher.com/uk/en/home/industrial/pharma-biopharma/drug-discovery-development/target-and-lead-identification-and-validation/kinasebiology/kinase-activity-assays.html. The tree representation in KinMap generated courtesy of Cell Signaling Technology, Inc. (www.cellsignal.com). mTORC1 (mTOR/RAPTOR/LST8) protein complex and ATM kinase and substrates were produced as previously described (Anandapadamanaban, M. et al. Science (New York, NY 366, 203-210 (2019); Baretic, D. et al. Sci Adv 3, e1700933 (2017). Screening of 1938 was conducted using SuperSep Phos-Tag 50 μmol/l 100×100×6.6 mm 17-well (192-18001/199-18011) gels. For ATM assays, 100 nM ATM was incubated for 30 min at 30° C. with 5 μM GST-p53 and 1 mM ATP, in the absence or presence of 200 μM 1938 in ATM Kinase Buffer (50 mM HEPES pH 7.5, 100 mM NaCl, 10% glycerol, 2 mM […], 5 mM MgCl2). […] Gels were then stained using InstantBlue™ Coomassie stain, and then quantified using BioRad Image Lab Software. […]

Test [2] has as its system rat sciatic nerve. Nature of the test: Rat sciatic nerve crush injury model. The class given is in vivo. The conditions noted are these: 21 days. Here is the method: Stimulated by these observations, we next tested 1938 in the sciatic nerve crush model in the rat, an in vivo model of peripheral nerve injury and regeneration. […] Immediately after the nerve crush (FIG. 5e, i-ii), 1938 was delivered via a single intraneural injection into the proximal crush site (FIG. 5e, iii) and via a minipump implanted adjacent to the nerve (FIG. 5e, iv), loaded with 1938 solution, for continuous delivery for the duration of the experiment. Analyses were conducted 3 weeks after injury.
Adult female Sprague Dawley rats (230-280 g, n=10, Charles River, UK) were anaesthetised by isoflurane inhalation in an induction chamber (5% isoflurane in O2, 0.8 l/min). Anaesthesia was maintained with 1.5-2.5% isoflurane inhalation, and the left sciatic nerve exposed at mid-thigh level.
The nerve was crushed by application of constant pressure using fully closed sterile type 4 tweezers (TAAB) for 15 sec. This was repeated two more times at the same point, with 45° rotation between each crush. The injury site was marked with a 10/0 epineurial non-absorbant suture (Ethicon). Following injury, frozen aliquots of 1938 solution and vehicle were defrosted. A single 2 μl injection of 1938 solution (5 μM in sterile H2O) or vehicle (sterile dH2O) was administered proximal to the crush site with a 10 μl Hamilton syringe. An osmotic minipump (Alzet 1004, Charles River, UK) was also implanted between the muscle layers, adjacent to the nerve oriented with the outlet nearest to the crush site, loaded with 1938 solution (100 μM in sterile H2O) or vehicle (sterile H2O). Animals were randomly assigned to groups (n=5 per group) and one experimenter was kept blind to condition for conducting functional and histological analyses. […]
At the end-point of the experiment (21 days), rats were anaesthetised and the sciatic nerve exposed as described above. […] The MI was manufactured using a previously documented protocol (Lancashire, H. T. et al. J Neural Eng 13, 034001 (2016). Electrode impedance of the MNI was 27.1±19.8 kΩ at 1k Hz. Compound muscle action potential (CMAP) was obtained by sciatic nerve stimulation with square wave pulses of 100 μsec with intensity from 1-10 mA. Stimulus was increased in 0.2 mA steps until muscle response amplitude no longer increased. CMAP amplitude was measured from peak to peak and recorded in triplicate for both the ipsilateral and contralateral side. The CMAP with the largest amplitude was selected for analysis.
A modified multipoint stimulation technique was used to calculate Motor Unit Number Estimation (MUNE) (Shefner, J. M. et al. Muscle & nerve 34, 603-607 (2006); Jacobsen, A. B. et al. J Vis Exp (2018); Arnold, W. D. et al. J Vis Exp (2015)). […] The CMAP was divided by the mean magnitude of SMUPs to quantify MUNE. […]

Test [3] deals with T2, mTORC1 (mTOR/RAPTOR/LST8 complex) (Homo sapiens, UniProt P42345).
T2 construct: made in house
Description: mTORC1 kinase assay (Phos-tag gel). Type of test: biochemical. The conditions noted are these: 200 μM 1938. Here is the method:
as §1

T1 sequence (Q13315 whole entry, species assumed): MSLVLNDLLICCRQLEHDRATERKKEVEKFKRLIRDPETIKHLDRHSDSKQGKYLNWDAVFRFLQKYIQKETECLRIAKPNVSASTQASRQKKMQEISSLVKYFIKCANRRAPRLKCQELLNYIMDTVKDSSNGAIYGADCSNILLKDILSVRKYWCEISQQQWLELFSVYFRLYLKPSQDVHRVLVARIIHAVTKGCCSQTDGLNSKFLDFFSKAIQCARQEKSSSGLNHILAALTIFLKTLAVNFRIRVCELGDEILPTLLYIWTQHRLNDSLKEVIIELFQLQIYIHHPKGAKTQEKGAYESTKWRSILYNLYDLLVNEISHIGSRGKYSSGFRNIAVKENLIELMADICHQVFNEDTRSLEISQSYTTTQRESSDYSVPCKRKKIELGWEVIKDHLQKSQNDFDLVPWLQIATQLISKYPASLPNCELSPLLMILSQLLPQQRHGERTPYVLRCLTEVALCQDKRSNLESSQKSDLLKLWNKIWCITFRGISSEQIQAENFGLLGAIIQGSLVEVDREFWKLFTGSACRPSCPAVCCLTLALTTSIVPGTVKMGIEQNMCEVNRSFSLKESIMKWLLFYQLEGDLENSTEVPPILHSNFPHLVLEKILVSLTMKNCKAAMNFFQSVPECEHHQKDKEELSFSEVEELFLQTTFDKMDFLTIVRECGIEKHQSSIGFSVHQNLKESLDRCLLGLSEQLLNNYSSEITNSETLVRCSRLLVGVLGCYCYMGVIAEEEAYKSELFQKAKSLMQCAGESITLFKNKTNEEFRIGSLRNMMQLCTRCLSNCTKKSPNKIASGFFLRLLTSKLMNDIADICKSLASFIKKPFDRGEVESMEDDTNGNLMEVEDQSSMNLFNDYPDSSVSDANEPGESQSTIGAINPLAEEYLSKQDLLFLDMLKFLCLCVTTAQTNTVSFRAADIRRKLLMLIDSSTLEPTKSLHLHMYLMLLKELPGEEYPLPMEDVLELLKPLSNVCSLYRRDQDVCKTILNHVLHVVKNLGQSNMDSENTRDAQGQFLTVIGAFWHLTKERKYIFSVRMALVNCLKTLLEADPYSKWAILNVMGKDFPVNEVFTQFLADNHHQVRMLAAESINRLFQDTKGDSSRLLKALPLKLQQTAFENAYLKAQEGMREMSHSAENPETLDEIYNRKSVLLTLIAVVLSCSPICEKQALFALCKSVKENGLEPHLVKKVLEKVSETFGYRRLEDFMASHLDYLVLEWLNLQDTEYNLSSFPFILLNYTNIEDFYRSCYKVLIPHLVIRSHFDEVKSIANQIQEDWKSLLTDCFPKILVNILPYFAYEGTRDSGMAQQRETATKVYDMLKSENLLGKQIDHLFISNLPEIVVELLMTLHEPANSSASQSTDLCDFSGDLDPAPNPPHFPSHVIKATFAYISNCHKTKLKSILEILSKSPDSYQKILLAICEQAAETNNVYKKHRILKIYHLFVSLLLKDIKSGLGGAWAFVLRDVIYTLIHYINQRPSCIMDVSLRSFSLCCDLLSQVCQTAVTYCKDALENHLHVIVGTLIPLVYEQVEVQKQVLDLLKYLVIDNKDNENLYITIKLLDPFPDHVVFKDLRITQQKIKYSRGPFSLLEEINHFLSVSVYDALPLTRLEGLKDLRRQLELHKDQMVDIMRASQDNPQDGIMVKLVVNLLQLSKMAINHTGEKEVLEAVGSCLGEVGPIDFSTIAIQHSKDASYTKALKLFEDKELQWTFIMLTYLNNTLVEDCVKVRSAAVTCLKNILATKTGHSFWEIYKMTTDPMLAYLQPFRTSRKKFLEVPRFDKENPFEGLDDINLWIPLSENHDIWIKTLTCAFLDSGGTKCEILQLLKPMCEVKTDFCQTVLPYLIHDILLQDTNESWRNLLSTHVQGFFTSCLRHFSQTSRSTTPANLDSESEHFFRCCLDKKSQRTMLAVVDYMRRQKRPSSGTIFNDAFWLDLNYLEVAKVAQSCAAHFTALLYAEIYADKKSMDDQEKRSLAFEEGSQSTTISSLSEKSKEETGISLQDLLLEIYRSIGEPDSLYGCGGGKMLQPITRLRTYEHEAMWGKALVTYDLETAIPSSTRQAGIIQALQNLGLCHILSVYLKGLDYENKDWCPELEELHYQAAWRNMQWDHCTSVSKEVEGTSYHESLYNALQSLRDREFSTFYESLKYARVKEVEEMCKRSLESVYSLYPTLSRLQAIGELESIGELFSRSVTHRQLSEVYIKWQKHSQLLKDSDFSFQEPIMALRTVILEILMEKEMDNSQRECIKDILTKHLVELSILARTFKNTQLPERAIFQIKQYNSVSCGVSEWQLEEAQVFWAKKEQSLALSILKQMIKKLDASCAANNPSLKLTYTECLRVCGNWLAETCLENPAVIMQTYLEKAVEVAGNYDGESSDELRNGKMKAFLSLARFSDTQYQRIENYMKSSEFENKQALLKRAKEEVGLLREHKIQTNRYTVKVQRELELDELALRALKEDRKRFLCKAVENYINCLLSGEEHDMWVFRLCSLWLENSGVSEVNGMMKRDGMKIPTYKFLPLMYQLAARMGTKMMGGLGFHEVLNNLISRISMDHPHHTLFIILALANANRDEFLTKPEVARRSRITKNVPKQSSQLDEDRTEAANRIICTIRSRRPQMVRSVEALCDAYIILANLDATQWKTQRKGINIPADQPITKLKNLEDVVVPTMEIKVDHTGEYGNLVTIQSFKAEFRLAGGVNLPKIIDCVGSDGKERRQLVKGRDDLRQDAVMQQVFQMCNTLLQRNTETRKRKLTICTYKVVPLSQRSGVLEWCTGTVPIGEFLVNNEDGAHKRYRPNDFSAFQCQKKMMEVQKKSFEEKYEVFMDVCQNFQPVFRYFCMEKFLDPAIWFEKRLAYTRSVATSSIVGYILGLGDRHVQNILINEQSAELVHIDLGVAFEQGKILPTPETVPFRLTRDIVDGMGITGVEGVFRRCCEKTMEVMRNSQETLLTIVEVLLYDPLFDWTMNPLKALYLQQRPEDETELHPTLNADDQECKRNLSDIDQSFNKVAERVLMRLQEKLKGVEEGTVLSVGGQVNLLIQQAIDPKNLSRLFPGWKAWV

Turning to `CCN1CCN(c2ccc(Nc3cc(Nc4cccc5c4N(C(C)=O)CC5)ccn3)cc2)CC1` [Example 1938], in test [1], the “activity of ATM” value is on record as “did not affect”. Further, in test [2] (3 mm and 6 mm distal to the crush site), the “neurofilament- and ChAT-positive axons, treatment versus control” value is “equivalent numbers”. In test [2] (distal common peroneal nerve), the “number of ChAT-positive motor axons” value is given as “an increase”. In test [2] (tibialis anterior muscle), the “compound muscle action potential (CMAP) recovery” value is on record as “greater” and the “motor unit number estimation (MUNE)” value is on record as “increased”. For the same compound, in test [3], the “activity of mTORC1” value is on record as “did not affect”.
